Structures are written as SMILES.

Usually IC50 stands for the point on the concentration scale where inhibition reaches its midpoint.

Chain of Urease (P07374 whole entry): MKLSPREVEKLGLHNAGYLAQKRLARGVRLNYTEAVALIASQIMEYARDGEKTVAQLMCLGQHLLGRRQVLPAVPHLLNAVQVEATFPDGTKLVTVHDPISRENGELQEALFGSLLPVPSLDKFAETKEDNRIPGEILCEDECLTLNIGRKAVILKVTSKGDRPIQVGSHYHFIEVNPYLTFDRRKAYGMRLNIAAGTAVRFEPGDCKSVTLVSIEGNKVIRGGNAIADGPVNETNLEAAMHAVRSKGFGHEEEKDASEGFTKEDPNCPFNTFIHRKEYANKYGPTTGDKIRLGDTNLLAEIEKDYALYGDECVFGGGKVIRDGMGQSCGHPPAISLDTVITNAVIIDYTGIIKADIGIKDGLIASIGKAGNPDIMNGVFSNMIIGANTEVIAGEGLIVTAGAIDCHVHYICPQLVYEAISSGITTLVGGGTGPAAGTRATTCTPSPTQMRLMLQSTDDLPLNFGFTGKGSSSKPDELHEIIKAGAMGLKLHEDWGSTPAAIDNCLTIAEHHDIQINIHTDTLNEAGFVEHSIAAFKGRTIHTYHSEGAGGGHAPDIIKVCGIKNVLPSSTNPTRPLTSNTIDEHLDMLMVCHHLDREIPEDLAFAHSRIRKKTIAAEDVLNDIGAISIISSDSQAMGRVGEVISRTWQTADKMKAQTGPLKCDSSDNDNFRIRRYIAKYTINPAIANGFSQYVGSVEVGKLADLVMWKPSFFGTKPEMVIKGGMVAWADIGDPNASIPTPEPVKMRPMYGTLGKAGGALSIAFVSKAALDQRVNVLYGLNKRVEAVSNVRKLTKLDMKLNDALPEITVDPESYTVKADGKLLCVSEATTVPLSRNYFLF

The test concerns the target Urease (Canavalia ensiformis, UniProt P07374). As to the kind of experiment: Inhibition of jack bean urease using urea as substrate assessed as ammonia production after 15 mins by Weatherburn assay.
Turning to `O=C1Nc2ccc(Cl)cc2/C1=C\c1ccc(C(=O)N/N=C/c2c(O)cc(O)cc2O)cc1`, the IC50 stood at 13 µM. As for `C/C(=N\NC(=O)c1ccc(/C=C2/C(=O)Nc3ccc(Cl)cc32)cc1)c1c(O)cc(O)cc1O`, the IC50 worked out at 35.4 µM.

`O=C1Nc2ccc(Cl)cc2/C1=C\c1ccc(C(=O)N/N=C/c2ccc(O)cc2O)cc1`: the IC50 amounted to 42.9 µM.

Take `O=C1Nc2ccc(Cl)cc2/C1=C\c1ccc(C(=O)N/N=C/c2cc(O)ccc2O)cc1`: the 50% inhibitory concentration (IC50) worked out at 53.2 µM.

On to `O=C1Nc2ccc(Cl)cc2/C1=C\c1ccc(C(=O)N/N=C/c2cc(O)c(O)cc2O)cc1`, for which the half-inhibitory concentration (IC50) was 126 µM. The value for `O=C1Nc2ccc(Cl)cc2/C1=C\c1ccc(C(=O)N/N=C/c2ccc(O)c(O)c2)cc1` was 70.8 µM. Regarding `O=C1Nc2ccc(Cl)cc2/C1=C\c1ccc(C(=O)N/N=C/c2cc(O)cc(O)c2)cc1`, the concentration for half-maximal inhibition (IC50) came out at 19.2 µM. Then `O=C1Nc2ccc(Cl)cc2/C1=C\c1ccc(C(=O)N/N=C/c2cccc(O)c2O)cc1`, with 109 µM; and `O=C1Nc2ccc(Cl)cc2/C1=C\c1ccc(C(=O)N/N=C/c2cccc(O)c2)cc1`, with 102 µM; and `O=C1Nc2ccc(Cl)cc2/C1=C\c1ccc(C(=O)N/N=C/c2ccc(O)cc2)cc1`, with 84.8 µM. `O=C1Nc2ccc(Cl)cc2/C1=C\c1ccc(C(=O)N/N=C/c2ccccc2O)cc1`: the IC50 turned out to be 120 µM.

In the case of `COc1ccc(/C=N/NC(=O)c2ccc(/C=C3/C(=O)Nc4ccc(Cl)cc43)cc2)cc1`, the IC50 came out at 144 µM. Then `O=C1Nc2ccc(Cl)cc2/C1=C\c1ccc(C(=O)N/N=C/c2ccc(Cl)cc2)cc1`, with 111 µM; and `C/C(=N\NC(=O)c1ccc(/C=C2/C(=O)Nc3ccc(Cl)cc32)cc1)c1ccccc1O`, with 71.8 µM; and `COc1ccc(/C=N/NC(=O)c2ccc(/C=C3/C(=O)Nc4ccc(Cl)cc43)cc2)c(O)c1`, with 145 µM. As to `COc1ccc(O)c(/C=N/NC(=O)c2ccc(/C=C3/C(=O)Nc4ccc(Cl)cc43)cc2)c1`, the IC50 turned out to be 82 µM. For `O=C1Nc2ccc(Cl)cc2/C1=C\c1ccc(C(=O)N/N=C/c2ccc([N+](=O)[O-])cc2)cc1`, the IC50 came out at 92.4 µM. The value for `O=C1Nc2ccc(Cl)cc2/C1=C\c1ccc(C(=O)N/N=C/c2cccc([N+](=O)[O-])c2)cc1` was 148 µM. As for `CC(=O)NO` [ACETOHYDROXAMIC ACID], the IC50 was determined as 42 µM.

These data come from ChEMBL document CHEMBL3600348, “Synthesis of novel derivatives of oxindole, their urease inhibition and molecular docking studies” (Bioorg Med Chem Lett, 2015).
